From patent publication EP4818168A1, “FUSED RING COMPOUND, PHARMACEUTICAL COMPOSITION THEREOF AND USE THEREOF” (priority 2023, dated 2025)
Read-outs that look alike come from different tables or passages of the source.

What was measured:
AURKA = molecular target: T1, AURKA (Homo sapiens, UniProt O14965); assay type: cell-based
T1 construct: endogenous in cells; host or cells: Jurkat cells
T1 sequence (O14965 1-403): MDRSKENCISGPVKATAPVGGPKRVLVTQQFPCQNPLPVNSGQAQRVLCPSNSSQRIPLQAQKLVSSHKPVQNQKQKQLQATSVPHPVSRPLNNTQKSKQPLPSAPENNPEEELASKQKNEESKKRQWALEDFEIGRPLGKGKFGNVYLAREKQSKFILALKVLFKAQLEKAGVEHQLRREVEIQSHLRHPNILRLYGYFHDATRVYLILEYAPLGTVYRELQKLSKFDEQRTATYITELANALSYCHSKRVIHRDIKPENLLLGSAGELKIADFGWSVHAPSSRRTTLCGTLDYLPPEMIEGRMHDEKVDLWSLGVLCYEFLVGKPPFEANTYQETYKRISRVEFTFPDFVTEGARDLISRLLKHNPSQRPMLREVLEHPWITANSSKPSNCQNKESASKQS
Method in brief: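 Jurkat cells seeded at 1×10^6 cells/500 µL and treated with compound; lysates run on SDS-PAGE, blotted to nitrocellulose and probed overnight at 4°C for AURKA. Chemiluminescent or fluorescent band intensity fitted to a curve to give DC50 for protein degradation.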

H82 cells = assay: cells; assay type: cell-based; conditions: Homo sapiens
Method in brief: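 H82 cells in RPMI1640 + 10% FBS exposed to compound (0.1% DMSO final) for 6 days at 37 °C, 5% CO2. Viability read by CellTiter-Glo ATP luminescence, normalised to DMSO and medium controls; IC50 from nonlinear regression of the dose–survival curve.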

[1] = NCI-H82, read-out: IC50 in H82 Cells
[2] = 100 nM compound, Jurkat cells, 24 h, Table 2
[3] = 1 µM compound, Jurkat cells, 24 h, Table 2
[4] = NCI-H82, H82 cells, 4000 cells/well, CellTiter-Glo, read-out: IC50 in H82 Cells

Structure (SMILES)	Percentage of AURKA Degradation Induced by 100 nM Compound in Jurkat Cells (AURKA)	Percentage of AURKA Degradation Induced by 1 µM Compound in Jurkat Cells (AURKA)	IC50 (H82 cells; [1])	Percentage of AURKA Degradation Induced by 100 nM Compound in Jurkat Cells (AURKA; [2])	Percentage of AURKA Degradation Induced by 1 µM Compound in Jurkat Cells (AURKA; [3])	IC50 (H82 cells; [4])
O=C1CCN(c2ccc(N3CCC(N4CCN(c5ccc(Nc6ncc7c(n6)-c6ccc(Cl)cc6C(c6nccs6)=NC7)cc5)C(=O)C4)CC3)nc2)C(=O)N1 [Compound A282]	+++ (key: +: Degradation ≤ 30%; ++: 30% < Degradation ≤ 70%; +++: Degradation > 70%)	+++ (key: +: Degradation ≤ 30%; ++: 30% < Degradation ≤ 70%; +++: Degradation > 70%)	< 1000 nM			
O=C1CCN(c2ccc(N3CCC(CN4CC(=O)N(C56CC(Nc7ncc8c(n7)-c7ccc(Cl)cc7C(c7c(F)cccc7F)=NC8)(C5)C6)C(=O)C4)CC3)nc2)C(=O)N1 [Compound A283]				+++ (Degradation > 70%)	+++ (Degradation > 70%)	< 1000 nM
O=C1CCN(c2ccc(N3CCN(C(=O)C4CCN(C56CC(Nc7ncc8c(n7)-c7ccc(Cl)cc7C(c7c(F)cccc7F)=NC8)(C5)C6)C(=O)C4)CC3)nc2)C(=O)N1 (stereo not drawn) [Compound A284]				+++ (Degradation > 70%)	++ (30% < Degradation ≤ 70%)	< 1000 nM
O=C1CCN(c2ccc(N3CCOC(C(=O)N4CCN(c5ccc(Nc6ncc7c(n6)-c6ccc(Cl)cc6C(c6c(F)cccc6F)=NC7)cc5)CC4)C3)nc2)C(=O)N1 (stereo not drawn) [Compound A285]				+++ (Degradation > 70%)	+++ (Degradation > 70%)	< 1000 nM
O=C1CCN(c2cnc(N3CCN(CC4(F)CN(c5ccc(Nc6ncc7c(n6)-c6ccc(Cl)cc6C(c6c(F)cccc6F)=NC7)cc5)C4)CC3)nc2)C(=O)N1 [Compound A286]				++ (30% < Degradation ≤ 70%)	++ (30% < Degradation ≤ 70%)	< 1000 nM
CP(C)(=O)c1cc(N2CCC(=O)NC2=O)ccc1N1CCN(C(=O)C2CCN(c3ccc(Nc4ncc5c(n4)-c4ccc(Cl)cc4C(c4c(F)cccc4F)=NC5)cc3)CC2)CC1 [Compound A287]				+ (Degradation ≤ 30%)	+ (Degradation ≤ 30%)	< 1000 nM
CP(C)(=O)c1cc(N2CCN(C(=O)C3CCN(c4ccc(Nc5ncc6c(n5)-c5ccc(Cl)cc5C(c5c(F)cccc5F)=NC6)cc4)CC3)CC2)ccc1N1CCC(=O)NC1=O [Compound A288]				+ (Degradation ≤ 30%)	+ (Degradation ≤ 30%)	< 1000 nM
O=C1CCN(c2ccc(N3CCC(O)(CN4CCN(C56CC(Nc7ncc8c(n7)-c7ccc(Cl)cc7C(c7c(F)cccc7F)=NC8)(C5)C6)C(=O)C4)CC3)nc2)C(=O)N1 [Compound A290]	++ (key: +: Degradation ≤ 30%; ++: 30% < Degradation ≤ 70%; +++: Degradation > 70%)	+++ (key: +: Degradation ≤ 30%; ++: 30% < Degradation ≤ 70%; +++: Degradation > 70%)	< 1000 nM			
O=C1CCN(c2ccc(N3CCN(CC4(F)CN(c5ccc(Nc6ncc7c(n6)-c6ccc(Cl)cc6C(c6nccs6)=NC7)cc5)C4)CC3)nc2)C(=O)N1 [Compound A291]				+++ (Degradation > 70%)	+++ (Degradation > 70%)	< 1000 nM
O=C1CCN(c2ccc(N3CC(C(=O)N4CCN(c5ccc(Nc6ncc7c(n6)-c6ccc(Cl)cc6C(c6nccs6)=NC7)cc5)CC4)C3)nc2)C(=O)N1 [Compound A292]				+++ (Degradation > 70%)	+++ (Degradation > 70%)	< 1000 nM
O=C1CCN(c2ccc(N3CCC(C4CN(C(=O)C56CC(Nc7ncc8c(n7)-c7ccc(Cl)cc7C(c7c(F)cccc7F)=NC8)(C5)C6)C4)CC3)nc2)C(=O)N1 [Compound A293]				+++ (Degradation > 70%)	+++ (Degradation > 70%)	< 1000 nM
O=C1CCN(c2ccc(N3CCC(F)(CN4CC(=O)N(C56CC(Nc7ncc8c(n7)-c7ccc(Cl)cc7C(c7c(F)cccc7F)=NC8)(C5)C6)C(=O)C4)CC3)nc2)C(=O)N1 [Compound A294]				++ (30% < Degradation ≤ 70%)	++ (30% < Degradation ≤ 70%)	< 1000 nM
N#Cc1cc(N2CCC(=O)NC2=O)ccc1N1CCN(C(=O)C2CCN(c3ccc(Nc4ncc5c(n4)-c4ccc(Cl)cc4C(c4c(F)cccc4F)=NC5)cc3)CC2)CC1 [Compound A296]				+++ (Degradation > 70%)	+++ (Degradation > 70%)	< 1000 nM
O=C1CCN(c2ccc(N3CC(C4CCN(C(=O)C56CC(Nc7ncc8c(n7)-c7ccc(Cl)cc7C(c7c(F)cccc7F)=NC8)(C5)C6)CC4)C3)nc2)C(=O)N1 [Compound A297]				+++ (Degradation > 70%)	+++ (Degradation > 70%)	< 1000 nM
O=C1CCN(c2ccc(N3CC4(CC(N5CCN(C67CC(Nc8ncc9c(n8)-c8ccc(Cl)cc8C(c8c(F)cccc8F)=NC9)(C6)C7)C(=O)C5)C4)C3)nc2)C(=O)N1 [Compound A298]				+++ (Degradation > 70%)	+++ (Degradation > 70%)	< 1000 nM
O=C1CCN(c2ccc(N3CC(O)(CN4CCN(c5ccc(Nc6ncc7c(n6)-c6ccc(Cl)cc6C(c6c(F)cccc6F)=NC7)cc5)C(=O)C4)C3)nc2)C(=O)N1 [Compound A299]	+++ (key: +: Degradation ≤ 30%; ++: 30% < Degradation ≤ 70%; +++: Degradation > 70%)	+++ (key: +: Degradation ≤ 30%; ++: 30% < Degradation ≤ 70%; +++: Degradation > 70%)	< 1000 nM			
O=C1CCN(c2ccc(N3CCC(O)(CN4CCN(c5ccc(Nc6ncc7c(n6)-c6ccc(Cl)cc6C(c6c(F)cccc6F)=NC7)cc5)C(=O)C4)CC3)nc2)C(=O)N1 [Compound A300]	+++ (key: +: Degradation ≤ 30%; ++: 30% < Degradation ≤ 70%; +++: Degradation > 70%)	+++ (key: +: Degradation ≤ 30%; ++: 30% < Degradation ≤ 70%; +++: Degradation > 70%)	< 1000 nM			
CC(C1CCN(c2ccc(N3CCC(=O)NC3=O)cn2)CC1)N1CCN(C23CC(Nc4ncc5c(n4)-c4ccc(Cl)cc4C(c4c(F)cccc4F)=NC5)(C2)C3)C(=O)C1 (stereo not drawn) [Compound A302]				+++ (Degradation > 70%)	+++ (Degradation > 70%)	< 1000 nM
CP(C)(=O)c1cc(Nc2ncc3c(n2)-c2ccc(Cl)cc2C(c2c(F)cccc2F)=NC3)ccc1N1CCN(C2CCN(c3ccc(N4CCC(=O)NC4=O)cn3)CC2)CC1=O [Compound A303]				+++ (Degradation > 70%)	+++ (Degradation > 70%)	< 1000 nM
N#Cc1cc(N2CCN(C(=O)C3CCN(c4ccc(Nc5ncc6c(n5)-c5ccc(Cl)cc5C(c5c(F)cccc5F)=NC6)cc4)CC3)CC2)ccc1N1CCC(=O)NC1=O [Compound A304]				+++ (Degradation > 70%)	+++ (Degradation > 70%)	< 1000 nM
N#Cc1ccc2c(c1)C(c1c(F)cccc1F)=NCc1cnc(Nc3ccc(N4CCN(C5CCN(c6ccc(N7CCC(=O)NC7=O)cn6)CC5)CC4=O)cc3)nc1-2 [Compound A305]				+++ (Degradation > 70%)	+++ (Degradation > 70%)	< 1000 nM
O=C1CCN(c2ccc(N3CCC(N4CCN(C56CC(Nc7ncc8c(n7)-c7ccc(Cl)cc7C(c7c(F)cccc7F)=NC8)(C5)C6)C(=O)C4)CC3)nc2)C(=O)N1 [Compound A306]				++ (30% < Degradation ≤ 70%)	+++ (Degradation > 70%)	< 1000 nM
O=C1CCN(c2ccc(N3CCN(C(=O)C4CN(c5ccc(Nc6ncc7c(n6)-c6ccc(Cl)cc6C(c6c(F)cccc6F)=NC7)cc5)CCO4)CC3)nc2)C(=O)N1 (stereo not drawn) [Compound A308]				+++ (Degradation > 70%)	+++ (Degradation > 70%)	< 1000 nM
CN1CCN(c2ccc(N3CCC(=O)NC3=O)cn2)CC1C(=O)N1CCN(c2ccc(Nc3ncc4c(n3)-c3ccc(Cl)cc3C(c3c(F)cccc3F)=NC4)cc2)CC1 (stereo not drawn) [Compound A309]				++ (30% < Degradation ≤ 70%)	++ (30% < Degradation ≤ 70%)	< 1000 nM
